What was measured:
[1] = touch-based APAP TH-sensor (DPV) measurement on index fingertip after APAP medication intake; type: in vivo, human; details: 60 min after intake of 650 mg APAP, APAP-free threshold 3.7 nA
Description: Adopted was a similar study framework to evaluate the in-situ detection capability of APAP TH-sensor. For this context, the measured signal is defined as the voltammetric current peak height ([…]), and the threshold for determining the APAP-free state was measured as 3.7 nA (three trials). FIGS. 3D and 3E show the corresponding voltammograms measured by the APAP TH-sensor, 10 min before and 60 min after the intake of an APAP-based medication (containing 650 mg APAP). The comparison of the two voltammograms and the corresponding extracted current peaks (IP, pre-intake ~0 nA vs. IP, post-intake ~15 nA) validates that the developed TH-sensor is capable of detecting the presence of circulating APAP molecules via the devised touch-based modality.

[2] = human, in vivo, 60 min
Description: Embodiments specifically employ the ethanol TH-sensor to assess whether the sensor is capable of differentiating between two states: no alcohol-intake vs. recent intake of an alcoholic beverage. For this context, defined were the measured signal S as the slope of the sensor's amperometric response, and the threshold as Sfree, avg+3×Sfree, SD, where Sfree, avg and Sfree, SD are the average and standard deviation of the signals obtained from the alcohol-free subject (three trials). […] Then performed were touch-based TH-sensor measurements before (t=−20 min) and after (t=+60 min) the intake of an alcoholic beverage (~100 mL, 12.5% alcohol).
Two human subjects participated in the characterization of each type of TH-sensor. For each trial, the subjects were instructed to wash their index fingertips with deionized (DI) water before testing and to rinse their mouth with cold water immediately after the beverage/medication intake (to avoid contamination from residue). Touch-based measurements were performed using corresponding TH-sensors before and at intermittent time points after the beverage/medication intake. The water loss from the fingertip was monitored by an evaporimeter (VapoMeter, Delfin Technologies). The fingertip temperature was monitored by a thermocouple (HT-9815, RISEPRO). […] BAC was estimated using an alcohol breathalyzer (S80, BACtrack Inc.). […]

[3] = patient, 900 mg lithium carbonate; ~0-1 h pre-intake vs ~1-2 h post-intake
Description: Further validated was the performance of the developed TOH-ISE in an in-situ lithium adherence monitoring study. To this end, a subject prescribed lithium-based medication was recruited. […] In a control experiment, touch-based sensing and salivary lithium analysis were also performed on three healthy subjects, where circulating lithium is expected to be negligible.
In-situ TOH-ISE characterization. […] For each touch-based entry, the subjects were instructed to wash their index or middle fingertips with DI water before testing. The acquired potentiometric readouts were processed using the same method as the ex-situ experiments to extract the sensing signal. For saliva collection, the subjects were instructed to rinse their mouth with cold water before collection. The samples were collected via direct salivation using a Saliva Collection Aid (Salimetrics, CA, USA). The salivary lithium was quantified using a colorimetric lithium assay kit (Abcam ab235613, MA, USA) and Nanodrop One (Thermo Fisher, MA, USA).

[4] = cited from earlier work

SMILES: CC(=O)Nc1ccc(O)cc1 [APAP, acetaminophen]
- APAP TH-sensor voltammetric current peak height IP, post-intake [1]: ~ 15 nA

SMILES: CCO [ethanol]
- ethanol TH-sensor signal S (slope of amperometric response) [2]: 21.5 nA/min

SMILES: O=C([O-])[O-].[Li+].[Li+] [lithium, lithium carbonate]
- TOH-ISE touch-based sensing signal, post versus pre drug intake [3]: larger signal
- clinically relevant range in non-invasively retrievable biofluid (e.g., saliva) ([4]; saliva, ~twice the corresponding serum concentrations): 0.5 to 3 mM
- therapeutic window ([4]; severe adverse effects if overdosed): 0.6 to 1.2 mM
